# Source: patent US4889953A, “Glycerol derivatives, their production and use” (Takeda Chemical Industries, Ltd., priority 1986, dated 1989)
# Where two headings read alike, the source gives them in different places.
# Columns and labels:
# Sarcoma 180 cells [1] = experiment: Antitumor action, Sarcoma 180 intraperitoneal in ICR mice, life-span and survivors on 40th day (Test Example 1); format: in vivo; conditions: 0.33 mg/mouse i.p. three times; for Life-span prolongation ratio (T/C, %): only related to mice found dead
# Description: Antitumor action of the compounds in Working Examples
# (§1) ICR mice (a group consisting of five mice) were inoculated intraperitoneally with 1×10^5 Sarcoma 180 cells per mouse, and then given intraperitoneally 0.33 mg/mouse of a compound dissolved in physiological saline, three times, i.e. 1 hour, 1 day and 2 days after inoculation. Reference compound IV, Va or Vb was given to mice under the same conditions. Shown in Table 1 are the life-span prolongation ratio against the untreated control group and the number of survived mice on the 40th day after the initiation of the test.
# [2] = test system: Platelet aggregation caused by PAF; experiment: Inhibition of PAF-induced platelet aggregation in rabbit PRP (Test Example 5); format: cell-based; conditions: Oryctolagus cuniculus, PAF 1×10^-8 M, read-out: inhibition ratio (%) of PAF-induced platelet aggregation; for inhibition at 30 µM: 3 × 10^-5 M; for inhibition at 3 µM: 3 × 10^-6 M; for inhibition at 0.3 µM: 3 × 10^-7 M
# Description: Blood was collected directly from a male rabbit, using a syringe containing 3.15% of citric acid (at a ratio of 1 part to 9 parts of blood) as an anticoagulant, and centrifuged at 800 rpm for 10 minutes at room temperature to obtain platelet rich plasma (PRP). The remaining blood was centrifuged further at 3000 rpm for 10 minutes to obtain platelet poor plasma (PPP) as the supernatant. By dilution of PRP with PPP, the platelet count was adjusted to about 500,000 cells/μl. After 250 μl of the resulting PRP was stirred at 37° C. for 2 minutes, a certain amount of the test compound was added, and the mixture was stirred for further 2 minutes, and then 1×10^-8 M of PAF was added. Platelet aggregation was measured by using a platelet aggregometer (manufactured by Rika Denki Co. in Japan). The aggregation-inhibiting activity of a test compound was determined from the inhibition ratio against maximal transmittance (maximal aggregation ratio) caused by PAF in the control PRP.
# [3] = test system: mouse mammary carcinoma cells MM46; experiment: Antitumor action, MM46 intraperitoneal in C3H mice, life-span and survivors on 60th day (Test Example 8); format: in vivo; conditions: for Life-span prolongation ratio (T/C, %): mice found dead only
# Source text: (§2) Antitumor action of the compounds of Working Examples
# C3H mice (a group consisting of 5 mice) were inoculated intraperitoneally with 1×10^4 mouse mammary carcinoma cells MM46 per mouse, […] saline once a day for 4 consecutive days starting from the second day after inoculation. Shown in Table 8 are the life-span prolongation ratio against the untreated control group and the number of survived mice on the 60th day after initiation of the test.
# Sarcoma 180 cells [4] = experiment: Antitumor action, Sarcoma 180 intraperitoneal in ICR mice, life-span and survivors on 60th day (Test Example 6); format: in vivo; conditions: Sarcoma-180, ip, 1440 h; for response vs control in vivo at 0.33 mg: read-out: Life-span prolongation ratio (T/C)
# Description: as §2
# as §1, with “inoculation.” for “inoculation. Reference compound IV, Va or Vb was given to mice under the same conditions.”, “Table 6” for “Table 1”, “the 60th” for “the 40th”
# Sarcoma 180 cells [5] = experiment: Antitumor action, Sarcoma 180 subcutaneous in ICR mice, intravenous dosing, tumor proliferation inhibition (Test Example 7); format: in vivo; conditions: 0.3 mg/mouse i.v. 9 times; tumor weight after 21 days
# Description: as §2
# ICR mice (a group consisting of 5 mice) were inoculated subcutaneously with 1×10^5 Sarcoma 180 cells per mouse, and given intravenously 0.3 mg/mouse of a compound of a Working Example dissolved in physiological saline 9 times in total, i.e. 8, 9, 10, 13, 14, 15, 16, 17, and 20 days after inoculation. After 21 days, the tumor tissue was extirpated and the tumor weight was weighed. Shown in Table 7 is tumor proliferation inhibition ratio as compared with the untreated control group.
# Sarcoma 180 cells [6] = experiment: Antitumor action, Sarcoma 180 subcutaneous in ICR mice, oral dosing (Test Example 9); format: in vivo; conditions: 0.3 mg/mouse orally eight times, after 20 days; for Inhibition ratio (%): against untreated control
# Description: Antitumor action of the compounds of Working Examples 8 and 24
# ICR mice (a group consisting of 5 mice) were inoculated subcutaneously at the dorsolateral area with […] 1×10^6 Sarcoma 180 cells per mouse, and given orally 0.3 mg/mouse of the compound of Example 8 or the compound of Example 24 eight times in total, i.e. 8th, 9th, 10th, 13th, 14th, 15th, 16th, and 17th day after inoculation. After 20 days the tumor tissue was extirpated and the tumor weight was weighed. Shown in Table 9 is tumor proliferation inhibition ratio against the untreated control.
# macrophages = conditions: even at about 1000 times concentration of that of PAF; cited from earlier work
# [7] = test system: mouse mammary carcinoma cells MM46; experiment: Antitumor action, MM46 intraperitoneal in C3H mice, life-span and survivors on 40th day (Test Example 3); format: in vivo; conditions: 0.25 mg/mouse once a day for 4 days
# Description: (§3) Antitumor action of the compound of Working Example 8
# C3H mice (a group consisting of 5 mice) were inoculated intraperitoneally with 1×10^4 mouse mammary carcinoma cells MM46 per mouse, and given 0.25 mg/mouse of the compound of Working Example 8 dissolved in physiological saline once a day for 4 consecutive days starting from the second day after the inoculation. The Reference compound (IV) was given under the same conditions. Shown in Table 3 are the life-span prolongation ratio against the untreated control group and the number of survived mice on the 40th day after initiation of the test.
# Sarcoma 180 cells [8] = experiment: Antitumor action, Sarcoma 180 subcutaneous in ICR mice, intravenous dosing, tumor proliferation inhibition (Test Example 2); format: in vivo; conditions: tumor weight after 21 days
# Description: as §3
# ICR mice (a group consisting of 5 mice) were inoculated subcutaneously with 1×10^6 Sarcoma 180 cells per mouse, and given intravenously 0.03 mg/mouse or 0.3 mg/mouse of the compound of Working Example 8 dissolved in physiological saline 9 times in total, i.e. 8, 9, 10, 13, 14, 15, 16, 17, and 20 days after inoculation. The Reference compound (IV), 0.3 mg/mouse, was given under the same conditions. After 21 days, the tumor tissue was extirpated and the tumor weight was weighed. Shown in Table 2 is tumor proliferation inhibition ratio as compared with the untreated control group.
# [9] = 0.25 mg/mouse once a day for 4 days
# [10] = 0.33 mg/mouse i.p. three times, 60th day, read-out: No. of survivors/No. of mice tested (converted)
# [11] = 0.33 mg/mouse i.p. three times, survivors on day 60 not included
# [12] = 0.125 mg/mouse once a day for 4 days
Compound,No. of survivors/No. of mice tested (Sarcoma 180 cells [1]),"Life-span prolongation ratio (T/C, %) (Sarcoma 180 cells [1]) [%]",inhibition at 30 µM [2] [%],inhibition at 3 µM [2] [%],responders at 0.33 mg (Sarcoma 180 cells [4]; [10]) [%],response vs control in vivo at 0.33 mg (Sarcoma 180 cells [4]; [11]) [%],other results
"CCCCCCCCCCCCCCCCCCOCC(COCC[N+](C)(C)C)OC (stereo not shown) [Compound Va, reference compound]",1/5,241,27,0,,,inhibition at 0.3 µM [2]: 0%
"CCCCCCCCCCCCCCCCCCOCC(COCCOCC[N+](C)(C)C)OC(=O)CC(C)=O.[Cl-] (stereo not shown) [Example 12, 2-[2-[2-(Acetoacetyloxy)-3-(octadecyloxy)propyloxy]ethoxy]ethyltrimethylammonium chloride]",,,,,40,292,"No. of survivors/No. of mice tested [3, 9]: 3/5; Life-span prolongation ratio (T/C, %) [3, 9]: 126%; No. of survivors/No. of mice tested ([3]; 0.5 mg/mouse once a day for 4 days): 5/5"
"CCCCCCCCCCCCCCCCCCOCC(COCCOCCOCC[N+](C)(C)C)OC (stereo not shown) [Example 9, 2-[2-[2-[2-Methoxy-3-(octadecyloxy)propyloxy]ethoxy]ethoxy]ethyltrimethylammonium chloride]",1/5,247,100,66,,,inhibition at 0.3 µM [2]: 3%
"CC(=O)CC(=O)OC(COCCCCCCCCCCCCC1CCCCC1)COCCOCC[N+](C)(C)C (stereo not shown) [Example 26, 2-[2-[2-Acetoacetyloxy-3-(12-cyclohexyl)dodecyloxypropyloxy]ethoxy]ethyltrimethylammonium chloride]",,,,,0,295,Inhibition ratio (1-T/C) (%) (Sarcoma 180 cells [5]): 60%
"CCCCCCCCCCCCCCCCCCOCC(COCCOCC[N+](C)(C)C)OCC1CO1 (stereo not shown) [Example 47, 2-[2-[2-(2,3-Epoxypropyloxy)-3-(octadecyloxy)propyloxy]ethoxy]ethyltrimethylammonium chloride]",,,,,20,237,
"CCCCCCCCCCCCCCCCCCOCC(COCCOCCOCC[N+](C)(C)C)OC(=O)CC(C)=O (stereo not shown) [Example 15, 2-[2-[2-[2-(Acetoacetyloxy)-3-(octadecyloxy)propyloxy]ethoxy]ethoxy]ethyltrimethylammonium chloride]",4/5,291,100,43,,,
"COC(COCCCCCCCCCCCC(F)(F)C(F)(F)C(F)(F)C(F)(F)C(F)(F)C(F)(F)C(F)(F)C(F)(F)F)COCCOCC[N+](C)(C)C (stereo not shown) [Example 51, 2-[2-[2-Methoxy-3-(12,12,13,13,14,14,15,15,16,16, 17,17,18,18,19,19,19-heptadecafluorononadecyloxy)propyloxy)ethoxy]ethyltrimethylammonium chloride]",,,,,,,"response vs control in vivo at 0.33 mg (Sarcoma 180 cells [4]; Mus musculus): 295%; responders at 0.33 mg (Sarcoma 180 cells [4]; Mus musculus, read-out: No. of survivors/No. of mice tested): 0%"
"COC(COCCCCCCCCCCCCC1CCCCC1)COCCOCC[N+](C)(C)C (stereo not shown) [Example 24, 2-[2-[3-(12-Cyclohexyl)dodecyloxy-2-methoxypropyloxy]ethoxy]ethyltrimethylammonium chloride]",3/5,262,100,63,0,302,Weight of tumor (Sarcoma 180 cells [6]): 0.35 ± 0.15 g; Inhibition ratio (%) (Sarcoma 180 cells [6]): 75%; Inhibition ratio (1-T/C) (%) (Sarcoma 180 cells [5]): 78%
"CCCCCCCCCCCCCCCCCCOCC(COCCOCC[N+](C)(C)C)OC(=S)NC (stereo not shown) [Example 42, 2-[2-[2-(Methylthiocarbamoyloxy)-3-(octadecyloxy)propyloxy]ethoxy]ethyltrimethylammonium chloride]",,,,,0,340,
lysolecithin,,,,,,,macrophage activation (macrophages): cannot activate macrophages
"CCCCCCCCCCCCCCCCCCOCC(COCCOCC[N+](C)(C)C)OC (stereo not shown) [Example 8, 2-[2-[2-Methoxy-3-(octadecyloxy)propyloxy]ethoxy]ethyltrimethylammonium chloride]",5/5,,100,38,,,"No. of survivors/No. of mice tested [7]: 5/5; No. of survivors/No. of mice tested [3, 12]: 2/5; Life-span prolongation ratio (T/C, %) [3, 12]: 144%; No. of survivors/No. of mice tested [3, 9]: 3/5; Life-span prolongation ratio (T/C, %) [3, 9]: 315%; inhibition at 0.3 µM [2]: 18%; Inhibition ratio (1-T/C) (%) (Sarcoma 180 cells [8]; 0.03 mg/mouse i.v. 9 times): 65%; Inhibition ratio (1-T/C) (%) (Sarcoma 180 cells [8]; 0.3 mg/mouse i.v. 9 times): 65%; Weight of tumor (Sarcoma 180 cells [6]): 0.35 ± 0.04 g; Inhibition ratio (%) (Sarcoma 180 cells [6]): 75%"
"CNC(=S)OC(COCCCCCCCCCCCCC1CCCCC1)COCCOCC[N+](C)(C)C (stereo not shown) [Example 43, 2-[2-[3-(12-Cyclohexyl)dodecyloxy-2-N-methylthiocarbamoyloxypropyloxy]ethoxy]ethyltrimethylammonium chloride]",,,,,20,323,
"CCCCCCCCCCCCCCCCCCOCC(COCCCC[N+](C)(C)C)OC (stereo not shown) [Compound Vb, reference compound]",0/5,291,97,5,,,inhibition at 0.3 µM [2]: 0%
"CCCCCCCCCCCCCCCCCCOCC(COCCOCC[N+](C)(C)C)OCC(C)=O (stereo not shown) [Example 29, 2-[2-[3-(Octadecyloxy)-2-(2-oxopropyloxy)propyloxy]ethoxy]ethyltrimethylammonium chloride]",,,,,60,220,
"C[N+](C)(C)CCOCCOCC(COCCCCCCCCCCCCC1CCCCC1)OCC(=O)[O-] (stereo not shown) [Example 66, 3-(12-Cyclohexyldodecyloxy)methyl-10-trimethylammonio-2,5,8-trioxadecane carboxylate]",,,,,0,235,
"COC(COCCOCC[N+](C)(C)C)COCCC(C)CCCC(C)CCCC(C)CCCC(C)C (stereo not shown) [Example 59, 2-[2-[2-Methoxy-3-(3,7,11,15-tetramethylhexadecyloxy)propyloxy]ethoxy]ethyltrimethylammonium chloride]",,,,,0,224,
